Data on two compounds can be found in US12460317B2 (The Texas A&M University System, priority 2019, dated 2025).

Starred links: 1 amine or outer side, 2 acyl side, 3 side chain; linkers in the order of their positions; H or OH if unused. Positions of bridges follow the written chain, without caps; N, C: chain ends. Residues, ends and D or L forms follow the SMILES beside them. *: point of attachment. 5FAM = O=C1OC2(c3ccc(O)cc3Oc3cc(O)ccc32)c2ccc(C(=O)*)cc21; CH2CH2CO = O=C(CC[*:1])[*:2]

For test [1] the following is noted: physiological conditions; cited from earlier work.
The target in another test is HDAC8 (Homo sapiens, UniProt Q9BY41). Put plainly: biochemical.
Chain of HDAC8 (Q9BY41 whole entry): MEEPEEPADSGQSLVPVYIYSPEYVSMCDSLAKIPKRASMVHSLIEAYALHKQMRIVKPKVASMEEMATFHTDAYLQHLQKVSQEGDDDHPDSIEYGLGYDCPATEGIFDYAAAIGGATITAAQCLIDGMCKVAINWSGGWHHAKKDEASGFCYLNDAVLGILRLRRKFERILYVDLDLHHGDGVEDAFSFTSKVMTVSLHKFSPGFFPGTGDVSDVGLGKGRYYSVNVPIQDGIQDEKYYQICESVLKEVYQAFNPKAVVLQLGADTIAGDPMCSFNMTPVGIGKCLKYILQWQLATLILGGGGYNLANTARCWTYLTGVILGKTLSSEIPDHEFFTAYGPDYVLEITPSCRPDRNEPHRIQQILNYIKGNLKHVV

Description for HDAC8: Applicants incubated a 25 nM 5-FAM-conjugated cyclic peptide and different concentrations of a target protein (160 nM to 160 μM) in black 96-well plates in a 200 μL total volume that was adjusted by adding a PBS buffer. The fluorescence polarization was measured in a microplate reader at Ex/Em=490 nm/520 nm.

On to `C=CC(=O)NCCCC[C@H](N)C(=O)O` [AcrK, N^ε-acryloyl-lysine], for which, in test [1], the “second-order rate constant of reaction with a thiol” value is 0.004 M⁻¹ s⁻¹.

One may read the Kd as the constant that tells how readily two partners part at equilibrium. A low value points to higher affinity. `CSCC[C@@H]1NC(=O)[C@H](Cc2c[nH]c3ccccc23)NC(=O)[C@H](CC(C)C)NC(=O)[C@H](CO)NC(=O)[C@H](CCC(N)=O)NC(=O)[C@@H](N)CSCCC(=O)NCCCC[C@@H](C(=O)N[C@@H](CCCCNC(=O)c2ccc3c(c2)C(=O)OC32c3ccc(O)cc3Oc3cc(O)ccc32)C(N)=O)NC(=O)[C@H](CC(N)=O)NC1=O` [CycH8a, CQSLWMNX] (H-CQSLWMNKK(5FAM)-NH2; linker 1-8 via CH2CH2CO): the affinity at HDAC8, expressed as Kd, was 7.1 µM.
